Data from patent publication US20120316138A1, “PPAR-SPARING THIAZOLIDINEDIONES AND COMBINATIONS FOR THE TREATMENT OF OBESITY AND OTHER METABOLIC DISEASES” (METABOLIC SOLUTIONS DEVELOPMENT COMPANY, LLC, priority 2009, published 2012).
Blank lines part the entries; values can stand above or below the compound they belong to.

Key:
[1] = system: PGC-1α; assay: Expression of PGC-1α mRNA in precursor BAT cells with norepinephrine (quantitative PCR); assay type: cell-based, mice; conditions: for PGC-1α message (mRNA): 3 μM compound for seven days, then 1 μM norepinephrine for 2 hours
Protocol: Another example of the ability of augmented signaling between cyclic nucleotides and compounds of Formula I is shown by the effect on expression of PGC-1α, a known regulator of mitochondrial biogenesis. Increased numbers of mitochondria are predictive of utility for the reduction of body weight.
Precursor BAT cells were isolated as described above and treated with or without 3 μM compounds: 1.] Compound A: 5-(4-(2-(5-ethylpyridin-2-yl)-2-oxoethoxy)benzyl)-1,3-thiazolidine-2,4-dione; 2.] Compound F: 5-((4-(2R)-2-(5-ethylpyridin-2-yl)-2-hydroxyethoxyl)benzyl)-1,3-thiazolidine-2,4-dione; or 3.] Compound G: 5-(4-(2-(3-methoxyphenyl)-2-oxoethoxy)benzyl)-1,3-thiazolidine-2,4-dione for seven days followed by treatment with 1 μM norepinephrine for 2 hours. Total RNA was isolated from the cells and the RNA message (mRNA) for PGC-1α was measured by quantitative polymerase chain reactions.

[2] = AUC of compound related materials after oral dosing of Compound G forms; assay type: in vivo; conditions: cynomolgus monkeys, 250 mg free acid equivalents, formulated tablets
Protocol: Referring to FIG. 9, the area under the curve (AUC) of compound related materials was compared following dosing of 250 mg of Compound G as powder in capsules of free acid (PIC), formulated tablets of micronized free acid, or formulated tablets of the Na or K salt of […] given at the same free acid equivalents. (N=4 cynomolgus monkeys). The formulated, compressed tablet also contained in each case approximately 40.5% lactose, 16.8% microcrystalline cellulose, 1.9% Croscarmellose sodium, 0.5% colloidal silicon dioxide, and 0.9% magnesium stearate.

[3] = system: brown adipose tissue precursor cells (UCP1); assay: BAT differentiation: UCP1 protein by Western blot in BAT precursor cells; assay type: cell-based, mice; conditions: 7 days
Protocol: Precursors of BAT are isolated from the interscapular adipose pad of either normal or diabetic mice and cultured in vitro as described below based on the modifications recited in Petrovic N, Shabalina I G, Timmons J A, Cannon B, Nedergaard J. Am. J. Physiol. Endocrinol. Metab. 295:E287-E296, 2008, hereby incorporated by reference.
The brown fat pads are pooled and minced, digested for 45 minutes in isolation buffer containing 0.15% (wt/vol) collagenase. The cell suspension is filtered through a 100 un nylon filter and centrifuged at 200×g for 5 minutes. The pellet containing the preadipocytes is resuspended in 1.2 ml/animal of DMEM containing 10% FBS, 10 mM HEPES, 25 μg/ml sodium ascorbate, 100 U/ml penicillin, and 100 μg/ml streptomycin. The resuspended preadipocytes are distributed into 6 well plates and grown at 37° C. in an atmosphere of 10% CO2 in air with 80% humidity. The medium is changed on the first day and then every second day until confluent.
Cells are then treated with the compounds, compound salts, or co-crystals thereof being assayed for BAT differentiation. This treatment can occur simultaneously with, after, or before strategies to increase intracellular cyclic nucleotides. The development of the BAT phenotype is assessed by direct measure of the uncoupling protein 1 (UCP1), which is emblematic of brown adipose cells.
Following treatment of the cells, the growth medium is aspirated, rinsed with PBS, and lysed with KHM buffer containing 1% Igepal CA-630, and a protease inhibitor cocktail. The lysate is centrifuged at 8,000×g for 5 minutes (4° C.), the supernatant containing the cell lysate is collected and total protein analyzed using the BCA method. 20 μg/lane of cell lysate is run on 10-20% Tris glycine gels under reducing conditions and the proteins transferred to PVDF membranes. Western blotting is conducted using UCP1 polyclonal 1° antibody, an HRP conjugated 2° antibody, and imaged using enhanced chemiluminescence reagents and imaging film. Densitometry is conducted on the scanned films using ImageJ software and analyzed using GraphPad Prism software.

[4] = Bioavailability of sodium salt of Compound A, oral capsule versus iv injection; assay type: in vivo; conditions: male cynomolgus monkeys, oral gavage, 90 mg free base equivalents in capsules, absolute availability versus iv
Protocol: The monkeys fasted overnight and were dosed by oral gavage washed down with 10 ml tap water. Blood samples were taken at 0.25, 0.5, 1, 2, 3, 4, 6, 9, 12, 24, and 48 hours after a single dosage was administered and assayed for drug related materials with a LCMS assay using an internal standard. 90 mg of drug was put in 00 gelatin capsules containing 90 mg of free base equivalents. This was compared to an iv injection of 2 ml/kg and 45 mg of free base solution in 50% hydroxypropyl b-cyclodextran. The absolute availability versus an iv injection was determined for both parent compound and major metabolite.

[5] = system: diabetic KKAy mouse; assay: Blood glucose lowering in the diabetic KKAy mouse; assay type: in vivo; conditions: diabetic KKAy mice, gavage once daily, glucose measured after 4 daily doses
Protocol: In these experiments, free base or sodium salt was given to diabetic KKAy mice (N=6) and blood glucose was measured after 4 days of daily treatment at the doses indicated. KKAy mice, 8-12 weeks of age, were given the doses of the compounds according to the dosages on the X axis of FIG. 10. The compounds were given by gavage once daily at […]. On the fifth day (after 4 daily doses at the levels show) a blood sample was taken to measure plasma glucose.

Structure (SMILES): CCc1ccc([C@@H](O)COc2ccc(CC3SC(=O)NC3=O)cc2)nc1 (stereo partly drawn) [Compound F, 5-((4-(2R)-2-(5-ethylpyridin-2-yl)-2-hydroxyethoxyl)benzyl)-1,3-thiazolidine-2,4-dione]
PGC-1α message (mRNA) [1]: an increase in PGC-1α message was observed

bioavailability (AUC of compound related materials) versus free acid counterparts [2]: significantly higher bioavailability
Structure (SMILES): COc1cccc(C(=O)COc2ccc(CC3SC(=O)[N-]C3=O)cc2)c1.[K+] (centres unmarked) [potassium salt of Compound G, Potassium 5-{4-[2-(3-methoxyphenyl)-2-oxoethoxy]benzyl}-2,4-dioxo-1,3-thiazolidin-3-ide]

Structure (SMILES): COc1cccc([C@@H](F)COc2ccc(CC3SC(=O)NC3=O)cc2)c1 (stereo partly drawn) [Compound C, 5-(4-((R)-2-fluoro-2-(3-methoxyphenyl)ethoxy)benzyl)thiazolidine-2,4-dione]
amount of UCP1 (Western blot) ([3]; 0.1 to 3 μM): dose-dependent increase

bioavailability of major metabolite versus free base counterpart [4]: significantly higher bioavailability | bioavailability of parent compound versus free base counterpart [4]: significantly higher bioavailability
Structure (SMILES): CCc1ccc(C(=O)COc2ccc(CC3SC(=O)[N-]C3=O)cc2)nc1.[Na+] (centres unmarked) [sodium salt of Compound A, Sodium 5-{4-[2-(5-ethylpyridin-2-yl)-2-oxoethoxy]benztl}-2,4-dioxo-1,3-thiazolidin-3-ide]
lowering blood glucose [5]: excellent dose response

Structure (SMILES): CCc1ccc(C(=O)COc2ccc(CC3SC(=O)NC3=O)cc2)nc1 (centres unmarked) [Compound A, 5-{4-[2-(5-ethylpyridin-2-yl)-2-oxoethoxy]benzyl}-1,3-thiazolidine-2,4-dione]
PGC-1α message (mRNA) [1]: an increase in PGC-1α message was observed | amount of UCP1 (Western blot) ([3]; 0.1 to 10 μM): dose-dependent increase

bioavailability (AUC of compound related materials) versus free acid counterparts [2]: significantly higher bioavailability
Structure (SMILES): COc1cccc(C(=O)COc2ccc(CC3SC(=O)[N-]C3=O)cc2)c1.[Na+] (centres unmarked) [sodium salt of Compound G, Sodium 5-{4-[2-(3-methoxyphenyl)-2-oxoethoxy]benztl}-2,4-dioxo-1,3-thiazolidin-3-ide]

Structure (SMILES): COc1cccc([C@H](F)COc2ccc(CC3SC(=O)NC3=O)cc2)c1 (stereo partly drawn) [Compound B, 5-(4-((S)-2-fluoro-2-(3-methoxyphenyl)ethoxy)benzyl)thiazolidine-2,4-dione]
amount of UCP1 (Western blot) ([3]; 0.1 to 3 μM): dose-dependent increase

Structure (SMILES): NC[C@H](O)c1ccc(O)c(O)c1 [norepinephrine, reference compound]
PGC-1α mRNA ([1]; norepinephrine alone, 1 μM for 2 hours, absence of compound (control)): did not produce an increase

Structure (SMILES): CCc1ccc([C@@H](F)COc2ccc(CC3SC(=O)NC3=O)cc2)nc1 (stereo partly drawn) [Compound E, 5-(4-((R)-2-(5-ethylpyridin-2-yl)-2-fluoroethoxy)benzyl)thiazolidine-2,4-dione]
amount of UCP1 (Western blot) ([3]; 3 to 10 μM): dose-dependent increase

Structure (SMILES): COc1cccc(C(=O)COc2ccc(CC3SC(=O)NC3=O)cc2)c1 (centres unmarked) [Compound G, 5-{4-[2-(3-methoxyphenyl)-2-oxoethoxy]benzyl}-1,3-thiazolidine-2,4-dione]
PGC-1α message (mRNA) [1]: an increase in PGC-1α message was observed

Structure (SMILES): CCc1ccc([C@H](F)COc2ccc(CC3SC(=O)NC3=O)cc2)nc1 (stereo partly drawn) [Compound D, 5-(4-((S)-2-(5-ethylpyridin-2-yl)-2-fluoroethoxy)benzyl)thiazolidine-2,4-dione]
amount of UCP1 (Western blot) ([3]; 3 to 10 μM): dose-dependent increase
